Measurements as given in patent US20090143318A1, “DEGRANULATION INHIBITOR” (Tropical Technology Center Ltd., priority 2006, published 2009).
Where a name gives a salt, the structure may show the parent alone. Read-outs that look alike come from different tables or passages of the source.

System: rat basophilic leukemia cells (RBL-2H3)
Assay: Degranulation inhibitory activity: hexosaminidase release-inhibitory activity test
Type: cell-based
Conditions: for IC50 value (inhibition of release of hexosaminidase) / IC50: IgE-sensitized RBL-2H3 cells, DNP-BSA antigen-induced degranulation; for Activity compared with the positive control ketotifen fumarate: statement in words, hexosaminidase release, RBL-2H3
Procedure: With regard to the measurement of degranulation inhibitory activity, a test for hexosaminidase release-inhibitory activity was carried out by referring to Non-Patent Document 1 and Non-Patent Document 2 (Kataoka M., Takagaki Y., Shoyakugaku Zasshi, 46(1), 25-29, 1992). Firstly, rat basophilic leukemia cells (RBL-2H3) were made into 5×10^5 cells/mL and seeded on a 96-well plate and anti-DNP-BSA mouse IgE antibody was added thereto so as to make its final concentration 0.29 μg/mL and incubated with 5% CO2 at 37° C. overnight in an incubator to sensitize the cells. Then the cells were washed with a phosphate-buffered physiological saline solution twice and 130 μL of a releasing mixture (comprising 116.9 mM of NaCl, 5.4 mM of KCl, 0.8 mM of MgSO4, 2.0 mM of CaCl2, 5.6 mM of glucose, 0.1% of bovine serum albumin and 25 mM of HEPES) was added thereto.
Then, Compounds (A) and (C) obtained in the invention were first dissolved in 25% ethanol, and then Compound (A) was diluted with 1% ethanol to achieve the final concentration in 7 serial dilutions in steps of from 1 μg/mL to 5 ng/mL; and Compound (C) was diluted with 1% ethanol to achieve the final concentration by 7 serial dilutions in steps of from 10 μg/mL to 50 ng/mL. Compound (B) was first dissolved in water, and then diluted with 1% ethanol to achieve the final concentration by 7 serial dilutions in steps of from 50 μg/mL to 50 ng/mL. Compound (D) was diluted with 4% ethanol-20 mM phosphate buffer to achieve the final concentration by 4 serial dilutions in steps of 2.6 μg/mL to 165 ng/mL. 10 μL portion samples of all concentrations of Compounds (A), (B), (C) and (D) were added to the cells, respectively, and allowed to stand at 37° C. under 5% CO2 in an incubator for 10 minutes. Then 10 μL of an antigen DNP-BSA (2 μg/mL) was added, the mixture was allowed to stand in an incubator for 1 hour to induce degranulation, and centrifuged to collect the supernatant. 15 μL of a 5 mM hexosaminidase substrate solution (p-nitrophenyl-β-D-glucosaminide) was added to 45 μL of the supernatant liquid, the mixture was made to react at 37° C. for 3 hours and 180 μL of a solution for stopping the reaction (0.1M NaHCO3/Na2CO3; pH 10.0) was added thereto. After completion of the reaction, absorbance at 415 nm was measured and the hexosaminidase release-inhibitory activity was calculated by the following formula. Meanwhile, a positive control (200 μM of ketotifen fumarate) and a negative control corresponding to the final solvent concentration for the test substance were prepared.
Hexosaminidase release-inhibitory Activity(%)=[1−(S−B/C−b)]×100
S: absorbance of the test substance upon addition of cells
B: absorbance upon addition of the test substance in the absence of the cells
C: absorbance of the negative control
b: absorbance in the absence of cells

[1] = molar concentration, read-out: IC50 value (inhibition of release of hexosaminidase), molar value in brackets
[2] = Rattus norvegicus, mass concentration, read-out: IC50 value (inhibition of release of hexosaminidase)
[3] = Rattus norvegicus, molar concentration, read-out: IC50 value (inhibition of release of hexosaminidase), molar value in brackets

| SMILES | IC50 value (inhibition of release of hexosaminidase) (mass concentration) | IC50 [1] | Activity compared with the positive control ketotifen fumarate | IC50 [2] | IC50 [3] |
| --- | --- | --- | --- | --- | --- |
| O=c1oc2c3c(cc4c(=O)oc5c(O)c(OC6O[C@H](CO)[C@@H](O)[C@H](O)[C@H]6O)cc1c5c24)OCO3 (stereo partly shown) [Compound (A), 3,4-dioxoloellagic acid 4′-glucoside] | 0.00663 µg/mL | 0.014 µM | – | – | – |
| COc1c(O)cc2c(=O)oc3c(O)c(OC4O[C@H](CO)[C@@H](O)[C@H](O)[C@H]4O)cc4c(=O)oc1c2c34 (stereo partly shown) [Compound (B), 3-O-methylellagic acid 4′-glucoside] | 14.83 µg/mL | 31 µM | higher activity | – | – |
| COc1cc2c(=O)oc3c(OC)c(O)cc4c(=O)oc(c1OC)c2c34 [Compound (C), 3,3′,4-tri-O-methylellagic acid] | – | – | higher activity | 4.47 µg/mL | 13 µM |
| O=c1oc2c3c(cc4c(=O)oc5c(O)c(O)cc1c5c24)OCO3 [Compound (D), 3,4-dioxoloellagic acid] | – | – | higher activity | 1.07 µg/mL | 3 µM |
| CN1CCC(=C2c3ccccc3CC(=O)c3sccc32)CC1 [Ketotifen fumarate, ketotifen fumarate, reference compound] | – | – | – | 71.8 µg/mL | 169 µM |
